Laboratory results as given in patent US7112600B1, “Fused-ring compounds and use thereof as drugs” (Japan Tobacco Inc., priority 1999, dated 2006).
Counter-ions that a name gives are not always drawn.

Tests used:
HCV polymerase = target: T1, HCV polymerase (Hepatitis C virus genotype 1b, UniProt P26663); test: biochemical; conditions: read-out: HCV polymerase inhibitory activity IC50
T1 construct: a region encoding NS5B (591 amino acids; J Virol 1991 Mar, 65(3), 1105-13) was amplified by PCR; 6 His (N); made in house; host or cells: Escherichia coli
T1 sequence (P26663 2420-3010): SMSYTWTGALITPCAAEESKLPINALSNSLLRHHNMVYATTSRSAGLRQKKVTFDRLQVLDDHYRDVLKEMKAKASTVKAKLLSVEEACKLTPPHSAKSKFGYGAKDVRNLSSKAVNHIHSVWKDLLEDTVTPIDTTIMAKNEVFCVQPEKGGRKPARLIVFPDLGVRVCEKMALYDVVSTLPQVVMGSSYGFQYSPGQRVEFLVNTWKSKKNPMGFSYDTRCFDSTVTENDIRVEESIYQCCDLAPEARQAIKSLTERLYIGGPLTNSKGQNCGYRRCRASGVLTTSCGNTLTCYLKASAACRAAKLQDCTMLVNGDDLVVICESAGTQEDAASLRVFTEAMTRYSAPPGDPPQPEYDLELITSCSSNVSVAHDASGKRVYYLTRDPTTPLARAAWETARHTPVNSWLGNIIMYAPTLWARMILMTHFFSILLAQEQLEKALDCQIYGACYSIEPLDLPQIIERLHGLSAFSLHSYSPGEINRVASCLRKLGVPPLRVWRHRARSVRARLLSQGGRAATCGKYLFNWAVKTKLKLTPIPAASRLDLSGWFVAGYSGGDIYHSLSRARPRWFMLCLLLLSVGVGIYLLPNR
Description: The evaluation of the HCV polymerase inhibitory activity of the compound of the present invention is explained in the following. This polymerase is an enzyme coded for by the non-structural protein region called NS5B on the RNA gene of HCV (EMBO J., 15:12-22, 1996).
i) Preparation of enzyme (HCV polymerase)
Using, as a template, a cDNA clone corresponding to the full length RNA gene of HCV BK strain obtained from the blood of a patient with hepatitis C, a region encoding NS5B (591 amino acids; J Virol 1991 Mar, 65(3), 1105-13) was amplified by PCR. The objective gene was prepared by adding a 6 His tag {base pair encoding 6 continuous histidine (His)} to the 5′ end thereof and transformed to Escherichia coli. The Escherichia coli capable of producing the objective protein was cultured. The obtained cells were suspended in a buffer solution containing a surfactant and crushed in a microfluidizer.
ii) Synthesis of substrate RNA
Using a synthetic primer designed based on the sequence of HCV genomic 3′ untranslated region, a DNA fragment (148 bp) containing polyU and 3′X sequence was entirely synthesized and cloned into plasmid pBluescript SK II(+) (Stratagene). The cDNA encoding full length NSSB, which was prepared in i) above, was digested with restriction enzyme KpnI to give a cDNA fragment containing the nucleotide sequence of from the restriction enzyme cleavage site to the termination codon. This cDNA fragment was inserted into the upstream of 3′ untranslated region of the DNA in pBluescript SK II(+) and ligated. The about 450 bp inserted DNA sequence was used as a template in the preparation of substrate RNA.
RNA was synthesized (37° C., 3 hr) by run-off method using this purified DNA as a template, a promoter of pBluescript SK II(+), MEGAscript RNA synthesis kit (Ambion) and T7 RNA polymerase. DNaseI was added and the mixture was incubated for 1 hr. The template DNA was removed by decomposition to give a crude RNA product.
This RNA was applied to formaldehyde denaturation agarose gel electrophoresis to confirm the quality thereof and preserved at −80° C.
iii) Assay of enzyme (HCV polymerase) inhibitory activity
A test substance (compound of the present invention) and a reaction mixture (30 μl) having the following composition were reacted at 25° C. for 90 min.
10% Trichloroacetic acid at 4° C. and 1% sodium pyrophosphate solution (150 μl) were added to this reaction mixture to stop the reaction. The reaction mixture was left standing in ice for 15 min to insolubilize RNA. This RNA was trapped on a glass filter (Whatman GF/C and the like) upon filtration by suction. This filter was washed with a solution containing 1% trichloroacetic acid and 0.1% sodium pyrophosphate, washed with 90% ethanol and is dried. A liquid scintillation cocktail (Packard) was added and the radioactivity of RNA synthesized by the enzyme reaction was measured on a liquid scintillation counter.
The HCV polymerase inhibitory activity (IC50) of the compound of the present invention was calculated from the values of radioactivity of the enzyme reaction with and without the test substance.
Reaction mixture : HCV polymerase (5 μg/ml) obtained in i), substrate RNA (10 μg/ml) obtained in ii), ATP (50 μM), GTP (50 μM), CTP (50 μM), UTP (2 μM), [5,6-^3H]UTP (46 Ci/mmol (Amersham), […]) 20 mM Tris-HCl (pH 7.5), EDTA (1 mM), MgCl2 (5 mM), NaCl (50 mM), DTT (1 mM), BSA (0.01%)

HCV type 1a = test: inhibitory activity on HCV type 1a; conditions: statement in words, no method described
HCV type 1b = test: inhibitory activity on HCV type 1b; conditions: statement in words, no method described
[1] = blood concentration when administered to an animal; assay type: in vivo; conditions: when administered as a pharmaceutical agent to an animal; statement in words

SMILES	IC50 (HCV polymerase) [nM]	further results
Cl.O=C(O)c1ccc2c(c1)nc(-c1ccc(OCc3cc(N4CCCC4=O)ccc3-c3ccc(Cl)cc3)cc1F)n2C1CCCCC1 [2-{4-[2-(4-chlorophenyl)-5-(2-oxopyrrolidin-1-yl)benzyloxy]-2-fluorophenyl}-1-cyclohexylbenzimidazole-5-carboxylic acid hydrochloride]		inhibitory activity on HCV type 1a (HCV type 1a): high inhibitory activity; inhibitory activity on HCV type 1b (HCV type 1b): high inhibitory activity; blood concentration [1]: high blood concentration
O=C(O)c1ccc2c(c1)nc(-c1ccc(OC(c3cccnc3)c3cccnc3)cc1F)n2C1CCCCC1 [Example 300, 2-{4-[bis(3-pyridyl)methoxy]-2-fluorophenyl}-1-cyclohexylbenzimidazole-5-carboxylic acid]	45	
COC(=O)c1ccc2c(c1)nc(-c1ccc(OCc3cc(C(=O)O)ccc3-c3ccc(Cl)cc3)cc1F)n2C1CCCCC1 [Example 281, methyl 2-{4-[5-carboxy-2-(4-chlorophenyl)benzyloxy]-2-fluorophenyl}-1-cyclohexylbenzimidazole-5-carboxylate hydrochloride]	52	
O=C(O)c1ccc2c(c1)nc(-c1ccc(Oc3cccc(Oc4ccccc4)c3)cc1)n2C1CCCCC1 [Example 129, 1-cyclohexyl-2-[4-(3-phenoxyphenoxy)phenyl]benzimidazole-5-carboxylic acid]	120	
COc1cc(CCOc2ccc(-c3nc4cc(C(=O)O)ccc4n3C3CCCCC3)cc2)cc(OC)c1OC [Example 101, 1-cyclohexyl-2-{4-[2-(3,4,5-trimethoxyphenyl)ethoxy]phenyl}-benzimidazole-5-carboxylic acid]	140	

Continued by falling IC50 (HCV polymerase), values first:

IC50 (HCV polymerase) [nM]	SMILES	further results
370	O=C(O)c1ccc2c(c1)nc(-c1ccc(OCCN3c4ccccc4CCc4ccccc43)cc1)n2C1CCCCC1 [Example 116, 1-cyclohexyl-2-{4-[2-(10,11-dihydro-5H-dibenzo[b,f]azepin-5-yl)ethoxy]phenyl}benzimidazole-5-carboxylic acid]	
55	O=C(O)c1ccc2c(c1)nc(-c1ccc(Oc3cc(-c4cccc(Cl)c4)ncn3)cc1)n2C1CCCCC1 [Example 240, 2-{4-[4-(3-chlorophenyl)-6-pyrimidinyloxy]phenyl}-1-cyclohexylbenzimidazole-5-carboxylic acid]	
11	CN(C)C(=O)c1ccc(-c2ccc(Cl)cc2)c(COc2ccc(-c3nc4cc(-c5nnn[nH]5)ccc4n3C3CCCCC3)c(F)c2)c1 [Example 434, 2-{4-[2-(4-chlorophenyl)-5-(dimethylcarbamoyl)benzyloxy]-2-fluorophenyl}-1-cyclohexyl-5-tetrazol-5-ylbenzimidazole]	
